Molecular target: Influenza PB2 (Influenza A virus, UniProt P03428)
Test: biochemical
Assay type: binding
Conditions: read-out: Influenza PB2 affinity, IC50

Sequence of Influenza PB2 (P03428 whole entry, looked up): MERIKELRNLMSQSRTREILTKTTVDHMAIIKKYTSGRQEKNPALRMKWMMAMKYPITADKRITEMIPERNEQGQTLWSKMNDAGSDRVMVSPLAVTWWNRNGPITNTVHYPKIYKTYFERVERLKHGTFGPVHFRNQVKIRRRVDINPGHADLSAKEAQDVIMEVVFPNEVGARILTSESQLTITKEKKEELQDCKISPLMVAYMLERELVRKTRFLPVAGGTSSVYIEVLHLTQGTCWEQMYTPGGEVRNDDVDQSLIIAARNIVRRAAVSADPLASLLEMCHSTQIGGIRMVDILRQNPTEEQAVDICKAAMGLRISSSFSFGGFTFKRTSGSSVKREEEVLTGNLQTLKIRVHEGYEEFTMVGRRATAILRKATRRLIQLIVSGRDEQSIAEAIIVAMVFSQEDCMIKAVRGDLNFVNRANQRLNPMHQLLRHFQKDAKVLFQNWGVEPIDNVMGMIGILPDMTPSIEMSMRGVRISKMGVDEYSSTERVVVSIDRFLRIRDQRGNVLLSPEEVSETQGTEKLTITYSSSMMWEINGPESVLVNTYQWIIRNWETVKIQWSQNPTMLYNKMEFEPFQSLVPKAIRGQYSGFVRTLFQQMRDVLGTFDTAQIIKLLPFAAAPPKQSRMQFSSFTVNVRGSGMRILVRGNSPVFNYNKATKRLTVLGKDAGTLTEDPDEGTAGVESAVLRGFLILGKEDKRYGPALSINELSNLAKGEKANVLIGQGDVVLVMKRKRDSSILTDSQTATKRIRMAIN

| Structure (SMILES) | IC50 |
| --- | --- |
| N#Cc1cnc2[nH]cc(-c3ncc4c(Cl)cn([C@@H]5C6CCC(CC6)[C@H]5C(=O)O)c4n3)c2c1 [Compound B218] | > 100 µM |
| CCOC(=O)[C@@H]1C2CCC(CC2)[C@H]1n1cc(F)c2cnc(-c3c[nH]c4ncc(C(F)(F)F)cc34)nc21 [Compound B217] | > 100 µM |
| CN(C)C(=O)N[C@H]1CC[C@@H](n2ccc3cnc(-c4c[nH]c5ncc(F)cc45)nc32)CC1 [Compound B70] | 10 to 100 µM |
| CNC(=O)[C@@H]1CCCC[C@H]1n1cc(F)c2cnc(-c3c[nH]c4ncc(Cl)cc34)nc21 (racemic) [Compound B95] | 10 to 100 µM |
| CC(C)(C)OC(=O)N1CCC(Cn2cc(F)c3cnc(-c4c[nH]c5ncc(F)cc45)nc32)CC1 [Compound B78] | > 100 µM |
| Fc1cnc2[nH]cc(-c3ncc4c(F)cn(CC5CCCNC5)c4n3)c2c1 (stereo not drawn) [Compound B60] | 10 to 100 µM |
| O=C(O)[C@@H]1C2CCC(CC2)[C@H]1n1cc(-c2ccncc2Cl)c2cnc(-c3c[nH]c4ncc(Cl)cc34)nc21 (relative stereo) [Compound B212] | 1 to 10 µM |
| CCOC(=O)[C@]1(C)CCCC[C@H]1n1cc(F)c2cnc(-c3c[nH]c4ncc(Cl)cc34)nc21 [Compound B88] | > 100 µM |
| CCOC(=O)[C@@H]1C2CCC(CC2)[C@H]1n1cc(-c2cccc(O)c2)c2cnc(-c3c[nH]c4ncc(F)cc34)nc21 [Compound B182] | 1 to 10 µM |
| CCOC(=O)c1cn([C@@H]2C3CCC(CC3)[C@H]2C(=O)O)c2nc(-c3c[nH]c4ncc(Cl)cc34)ncc12 [Compound B207] | < 1 µM |
| O=C(O)C1=CCCCC1n1cc(F)c2cnc(-c3c[nH]c4ncc(Cl)cc34)nc21 (stereo not drawn) [Compound B99] | < 1 µM |
| CCOC(=O)C(C)Cn1cc(-c2c[nH]c3ncc(F)cc23)c2cncnc21 (stereo not drawn) [Compound C17] | > 100 µM |
| O=C(O)[C@H]1C2CCC(CC2)C1n1cc(Cl)c2cnc(-c3c[nH]c4ncc(F)cc34)nc21 (single isomer, unassigned) [Compound B133] | < 1 µM |
| CCOC(=O)[C@@H]1C2CCC(CC2)[C@H]1n1cc(C#CC2CC2)c2cnc(-c3c[nH]c4ncc(F)cc34)nc21 [Compound B154] | 10 to 100 µM |
| O=C(O)[C@@H]1C2CCC(CC2)C1n1cc(Cl)c2cnc(-c3c[nH]c4ncc(F)cc34)nc21 (stereo partly drawn) [Compound B138] | < 1 µM |
| CNC(=O)c1cn([C@H]2C3CCC(CC3)[C@@H]2C(=O)O)c2nc(-c3c[nH]c4ncc(Cl)cc34)ncc12 [Compound B197] | < 1 µM |
| C[C@@]1(C(=O)O)CCCC[C@H]1n1cc(F)c2cnc(-c3c[nH]c4ncc(F)cc34)nc21 [Compound B89] | < 1 µM |
| CCOC(=O)[C@@H]1C2CCC(CC2)[C@H]1n1cc(-c2ccncc2)c2cnc(-c3c[nH]c4ncc(F)cc34)nc21 [Compound B176] | 10 to 100 µM |
| COC(=O)[C@@]1(C)CCCC[C@H]1n1cc(Cl)c2cnc(-c3c[nH]c4ncc(F)cc34)nc21 [Compound B81] | > 100 µM |
| O=C(O)[C@@H]1C2CCC(CC2)C1n1cc(F)c2cnc(-c3c[nH]c4ncc(Cl)cc34)nc21 (single isomer, unassigned) [Compound B144] | < 1 µM |
| O=C(O)[C@H]1C2CCC(CC2)[C@@H]1n1cc(F)c2cnc(-c3c[nH]c4ncc(Cl)cc34)nc21 [Compound B135] | < 1 µM |
| O=C(O)CCn1ccc2c(-c3c[nH]c4ncc(F)cc34)ncnc21 [Compound A5] | 10 to 100 µM |
| O=C(O)[C@@H]1CCCC[C@H]1n1ccc2cnc(-c3c[nH]c4ncc(F)cc34)nc21 (single isomer, unassigned) [Compound B24] | < 1 µM |

| Structure (SMILES) | IC50 |
| --- | --- |
| C[C@H](NC(=O)Cn1ccc2cnc(-c3c[nH]c4ncc(F)cc34)nc21)C(=O)O [Compound B11] | 10 to 100 µM |
| CCOC(=O)[C@H]1C2CCC(CC2)[C@@H]1n1cc(F)c2cnc(-c3c[nH]c4ncc(Cl)cc34)nc21 [Compound B134] | > 100 µM |
| O=C(O)[C@@H]1C2CCC(CC2)C1n1cc(F)c2cnc(-c3c[nH]c4ncc(F)cc34)nc21 (stereo partly drawn) [Compound B139] | 1 to 10 µM |
| CNC(=O)N[C@H]1CC[C@@H](n2ccc3cnc(-c4c[nH]c5ncc(F)cc45)nc32)CC1 [Compound B68] | 1 to 10 µM |
| CCOCCCCCOCCNC(=O)N1CCC[C@H](n2ccc3cnc(-c4c[nH]c5ncc(F)cc45)nc32)C1 [Compound B35] | 10 to 100 µM |
| C[C@@]1(C(=O)O)CCCC[C@@H]1n1cc(Cl)c2cnc(-c3c[nH]c4ncc(F)cc34)nc21 [Compound B83] | 1 to 10 µM |
| O=C(O)[C@H]1C2CCC(CC2)C1n1ccc2cnc(-c3c[nH]c4ncc(F)cc34)nc21 (stereo partly drawn) [Compound B120] | < 1 µM |
| COC(=O)C[C@H](NC(=O)Cn1ccc2c(-c3c[nH]c4ncc(F)cc34)ncnc21)C(=O)OC [Compound A12] | > 100 µM |
| Fc1cnc2[nH]cc(-c3ncc4c(F)cn(CC5CCCCN5)c4n3)c2c1 (stereo not drawn) [Compound B76] | 10 to 100 µM |
| O=C(O)[C@@H]1CCCC[C@H]1n1ccc2cnc(-c3c[nH]c4ncc(F)cc34)nc21 (single isomer, unassigned) [Compound B17] | < 1 µM |
| O=CC1=C(n2cc(F)c3cnc(-c4c[nH]c5ncc(Cl)cc45)nc32)C2CCC1CC2 [Compound B209] | 1 to 10 µM |
| CNC(=O)[C@H]1C2CCC(CC2)[C@@H]1n1cc(Cl)c2cnc(-c3c[nH]c4ncc(F)cc34)nc21 [Compound B141] | 1 to 10 µM |
| CN(C)C(=O)CCn1ccc2cnc(-c3c[nH]c4ncc(F)cc34)nc21 [Compound B2] | 10 to 100 µM |
| COC(=O)[C@@H]1C2CCC(CC2)[C@H]1n1cc(-c2ccn[nH]2)c2cnc(-c3c[nH]c4ncc(F)cc34)nc21 [Compound B173] | 1 to 10 µM |
| CCOC(=O)[C@@H]1C2CCC(CC2)[C@H]1n1cc(CCCCC#N)c2cnc(-c3c[nH]c4ncc(F)cc34)nc21 [Compound B202] | > 100 µM |
| CCOCCOCCOCCNC(=O)[C@H]1CCC[C@H](n2ccc3cnc(-c4c[nH]c5ncc(F)cc45)nc32)C1 [Compound B47] | > 100 µM |
| O=C(O)[C@@H]1C2CCC(CC2)[C@H]1n1cc(C(F)(F)F)c2cnc(-c3c[nH]c4ncc(F)cc34)nc21 [Compound B151] | < 1 µM |
| CCOCc1ccc(C(=O)N[C@H]2CCC[C@@H](n3cc(F)c4cnc(-c5c[nH]c6ncc(Cl)cc56)nc43)C2)nc1 [Compound B101] | > 100 µM |
| O=C(O)[C@H]1C2CCC(CC2)C1n1cc(Cl)c2cnc(-c3c[nH]c4ncc(F)cc34)nc21 (single isomer, unassigned) [Compound B132] | < 1 µM |
| O=C(O)/C=C/n1ccc2cnc(-c3c[nH]c4ncc(F)cc34)nc21 [Compound B18] | 10 to 100 µM |
| O=C(O)[C@@H]1C2CCC(CC2)[C@H]1n1ccc2cnc(-c3c[nH]c4ncc(F)cc34)cc21 [Compound B208] | 1 to 10 µM |
| O=C(O)CCn1ccc2cnc(-c3c[nH]c4ncc(F)cc34)nc21 [Compound B5] | 10 to 100 µM |
| CCOC(=O)[C@H]1C2CCC(CC2)[C@@H]1n1cc(F)c2cnc(-c3c[nH]c4ncc(F)cc34)nc21 [Compound B129] | 10 to 100 µM |

| Structure (SMILES) | IC50 |
| --- | --- |
| COC(=O)[C@H](CO)NC(=O)CCn1ccc2c(-c3c[nH]c4ncc(F)cc34)ncnc21 [Compound A19] | 10 to 100 µM |
| CCC(C)(C(=O)NCC(F)(F)F)n1ccc2cnc(-c3c[nH]c4ncccc34)nc21 (stereo not drawn) [Compound B97] | > 100 µM |
| CCOC(=O)[C@H]1C2CCC(CC2)[C@@H]1n1ccc2cnc(-c3c[nH]c4ncc(Cl)cc34)nc21 [Compound B128] | 10 to 100 µM |
| O=C(O)[C@@H]1C2CCC(CC2)[C@H]1n1cc(-c2ccoc2)c2cnc(-c3c[nH]c4ncc(F)cc34)nc21 [Compound B161] | < 1 µM |
| COC(=O)[C@H]1CCCN1C(=O)Cn1ccc2c(-c3c[nH]c4ncc(F)cc34)ncnc21 [Compound A15] | > 100 µM |
| COC(=O)CCn1ccc2c(-c3c[nH]c4ncc(F)cc34)ncnc21 [Compound A2] | 10 to 100 µM |
| CC(CC(=O)O)n1cc(-c2c[nH]c3ncc(F)cc23)c2cncnc21 (stereo not drawn) [Compound C8] | 10 to 100 µM |
| O=C(O)[C@@H]1C2CCC(CC2)[C@H]1n1cc(-c2ccccc2O)c2cnc(-c3c[nH]c4ncc(F)cc34)nc21 [Compound B165] | 1 to 10 µM |
| CCCCCOCCOCCNC(=O)N[C@H]1CCC[C@@H](n2ccc3cnc(-c4c[nH]c5ncc(F)cc45)nc32)C1 [Compound B36] | > 100 µM |
| COC(=O)[C@@H]1C2CCC(CC2)[C@H]1n1ccc2ccc(-c3c[nH]c4ncc(Cl)cc34)cc21 [Compound B200] | 10 to 100 µM |
| COC(=O)[C@H](CO)NC(=O)Cn1ccc2c(-c3c[nH]c4ncc(F)cc34)ncnc21 [Compound A13] | > 100 µM |
| COC(=O)[C@@H](Cc1ccccc1)NC(=O)CCn1ccc2c(-c3c[nH]c4ncc(F)cc34)ncnc21 [Compound A18] | > 100 µM |
| N#Cc1cnccc1-c1cn([C@@H]2C3CCC(CC3)[C@H]2C(=O)O)c2nc(-c3c[nH]c4ncc(Cl)cc34)ncc12 [Compound B220] | 10 to 100 µM |
| N[C@H]1CC[C@@H](n2ccc3cnc(-c4c[nH]c5ncc(F)cc45)nc32)CC1 [Compound B69] | 10 to 100 µM |
| CN(C)C(=O)Cn1ccc2c(-c3c[nH]c4ncc(F)cc34)ncnc21 [Compound A1] | 10 to 100 µM |
| CNC(=O)[C@]1(C)CCCC[C@H]1n1cc(F)c2cnc(-c3c[nH]c4ncc(Cl)cc34)nc21 [Compound B92] | 10 to 100 µM |
| CN(C)C(=O)N1CCCC(Cn2cc(F)c3cnc(-c4c[nH]c5ncc(F)cc45)nc32)C1 (stereo not drawn) [Compound B75] | 10 to 100 µM |
| CC(C)c1cn([C@@H]2C3CCC(CC3)[C@H]2C(=O)O)c2nc(-c3c[nH]c4ncc(F)cc34)ncc12 [Compound B175] | < 1 µM |
| CCOCCOCCCCCNC(=O)N1CCC[C@H](n2ccc3cnc(-c4c[nH]c5ncc(F)cc45)nc32)C1 [Compound B37] | > 100 µM |
| O=C(O)CCn1cc(-c2c[nH]c3ncc(F)cc23)c2cncnc21 [Compound C5] | > 100 µM |
| CCOC(=O)[C@@H]1C2CCC(CC2)[C@H]1n1cc(C(C)C)c2cnc(-c3c[nH]c4ncc(F)cc34)nc21 [Compound B180] | 10 to 100 µM |
| CN(C)C(=O)c1cn([C@@H]2C3CCC(CC3)[C@H]2C(=O)O)c2nc(-c3c[nH]c4ncc(Cl)cc34)ncc12 [Compound B204] | < 1 µM |
| O=C(O)[C@@H]1C2CCC(CC2)[C@H]1n1ccc2ccc(-c3c[nH]c4ncc(Cl)cc34)cc21 [Compound B206] | 1 to 10 µM |

— patent publication US11014941B2, “Pyrrolopyrimidine derivatives useful as inhibitors of influenza virus replication” (priority 2017, dated 2021)
